According to article PMC7691360, “Synthesis of novel cytotoxic tetracyclic acridone derivatives and study of their molecular docking, ADMET, QSAR, bioactivity and protein binding properties” (Scientific Reports, 2020):

Experiments:
HEK293T cells = assay: MTT cytotoxicity assay against HEK293T; assay type: cell-based; conditions: Homo sapiens, HEK-293T, 48 h, read-out: Percentage of inhibition against treated concentrations
Method: (§1) Anticancer activity of 7a–s has been evaluated by MTT [3-(4,5-dimethylthiazol-2-yl)-2,5-diphenyl-tetrazolium bromide] assay and the cell lines HT29 (ATCC: HTB-38), MDA-MB-231 (ATCC: HTB-26), HEK293T (ATCC: CRL-3216) were procured from American type cell culture collection (ATCC), Manassas, USA and other chemicals were procured from Sigma-Aldrich. Then absorbance (used as a measure of cell proliferation) was measured at 570 nm with a kinetic micro-plate reader (BioTek, Winooski, Vermont).
(§2) Having synthesized a series of the title compounds, all of them were screened for their in vitro anticancer profiles against a panel of human colorectal adenocarcinoma (HT29), human breast adenocarcinoma (MDA-MB-231) and mutated Human embryonic kidney 293 (HEK293T) cancer cell lines by using MTT colourmetric assay as per Johan van Meerloo protocol. The three cell lines were cultured in […] medium and supplemented with 10% FBS followed by 100 units/mL penicillin/ streptomycin and were cultured at 37 °C in 5% CO2. Cell proliferation of the growing cells was measured in terms of logarithmic standards. Analytically, all the cultured cells were plated onto 96 well plates at a starting density of 10^5 cells. Then all the cells were treated with title compounds 7a–s for a period of 48 h with different concentrations. After this incubation cell proliferation inhibition was determined by MTT assay and all the experiments were conducted in triplicates and readings were presented as mean ± SD and provided in Tables 1, 2 and 3.

HT29 cells = assay: MTT cytotoxicity assay against HT29; assay type: cell-based; conditions: Homo sapiens, 48 h, read-out: Percentage of inhibition against treated concentrations; for activity at 1 µM: HT-29, HT29, 1 µM; for activity at 5 µM: HT-29, HT29, 5 µM; for activity at 10 µM: HT-29, HT29, 10 µM; for activity at 25 µM: HT-29, HT29, 25 µM; for activity at 50 µM: HT-29, HT29, 50 µM
Method: as §1, §2

MDA-MB-231 cells = assay: MTT cytotoxicity assay against MDA-MB-231; assay type: cell-based; conditions: Homo sapiens, 48 h, read-out: Percentage of inhibition against treated concentrations; for activity at 1 µM: MDAMB231, 1 µM; for activity at 5 µM: MDAMB231, 5 µM; for activity at 10 µM: MDAMB231, 10 µM; for activity at 25 µM: MDAMB231, 25 µM; for activity at 50 µM: MDAMB231, 50 µM
Method: as §1, §2

## O=C(c1cccnc1)N1CCn2c3ccccc3c(=O)c3cccc1c32 [Compound 7b, 3-Nicotinoyl-2,3-dihydropyrazino[3,2,1-de]acridin-7(1H)-one]
HEK293T cells
  activity at 1 µM: 98.93 ± 0.66%
  activity at 5 µM: 97.41 ± 0.57%
  activity at 10 µM: 96.44 ± 0.46%
  activity at 25 µM: 95.2 ± 0.29%
  activity at 50 µM: 55.1 ± 0.88%
HT29 cells
  activity at 1 µM: 89.93 ± 0.66%
  activity at 5 µM: 65.63 ± 0.27%
  activity at 10 µM: 52.5 ± 0.82%
  activity at 25 µM: 38.1 ± 0.42%
  activity at 50 µM: 19.4 ± 0.35%
MDA-MB-231 cells
  activity at 1 µM: 86.22 ± 0.83%
  activity at 5 µM: 56.42 ± 0.47%
  activity at 10 µM: 46.91 ± 0.44%
  activity at 25 µM: 32.3 ± 0.16%
  activity at 50 µM: 19 ± 0.62%
other
  melting point: 231 to 233 °C

## O=C(c1ccncc1)N1CCn2c3ccccc3c(=O)c3cccc1c32 [Compound 7c, 3-Isonicotinoyl-2,3 dihydropyrazino[3,2,1-de]acridin-7(1H)-one]
HEK293T cells
  activity at 1 µM: 96.63 ± 0.53%
  activity at 5 µM: 94.28 ± 0.53%
  activity at 10 µM: 90.18 ± 0.38%
  activity at 25 µM: 83.28 ± 0.21%
  activity at 50 µM: 49.08 ± 0.23%
HT29 cells
  activity at 1 µM: 90.02 ± 0.31%
  activity at 5 µM: 66.2 ± 0.83%
  activity at 10 µM: 52.9 ± 0.84%
  activity at 25 µM: 40.37 ± 0.15%
  activity at 50 µM: 20.79 ± 0.08%
MDA-MB-231 cells
  activity at 1 µM: 86.8 ± 0.96%
  activity at 5 µM: 57.39 ± 0.32%
  activity at 10 µM: 47.2 ± 0.93%
  activity at 25 µM: 38.69 ± 0.28%
  activity at 50 µM: 22.8 ± 0.89%
other
  melting point: 233 to 235 °C

## Cc1cccc(C(=O)N2CCn3c4ccccc4c(=O)c4cccc2c43)n1 [Compound 7e, 3-(6-Methylpicolinoyl)-2,3-dihydropyrazino[3,2,1-de]acridin-7(1H)-one]
HEK293T cells
  activity at 1 µM: 98.73 ± 0.97%
  activity at 5 µM: 97.08 ± 0.25%
  activity at 10 µM: 95.2 ± 0.76%
  activity at 25 µM: 91.72 ± 0.35%
  activity at 50 µM: 54 ± 0.77%
HT29 cells
  activity at 1 µM: 84.9 ± 0.94%
  activity at 5 µM: 60.82 ± 0.33%
  activity at 10 µM: 49.1 ± 0.85%
  activity at 25 µM: 27.6 ± 0.35%
  activity at 50 µM: 16.3 ± 0.55%
MDA-MB-231 cells
  activity at 1 µM: 82.18 ± 0.79%
  activity at 5 µM: 52.9 ± 0.75%
  activity at 10 µM: 42.1 ± 0.52%
  activity at 25 µM: 15.83 ± 0.14%
  activity at 50 µM: 11.3 ± 0.22%
other
  melting point: 246 to 248 °C

## Cc1ccc(C(=O)N2CCn3c4ccccc4c(=O)c4cccc2c43)nc1 [Compound 7f, 3-(5-Methylpicolinoyl)-2,3-dihydropyrazino[3,2,1-de]acridin-7(1H)-one]
HEK293T cells
  activity at 1 µM: 92.96 ± 0.52%
  activity at 5 µM: 90.92 ± 0.52%
  activity at 10 µM: 88.07 ± 0.68%
  activity at 25 µM: 80.53 ± 0.41%
  activity at 50 µM: 47.46 ± 0.38%
HT29 cells
  activity at 1 µM: 86.92 ± 0.24%
  activity at 5 µM: 61.4 ± 0.68%
  activity at 10 µM: 49.24 ± 0.05%
  activity at 25 µM: 29.09 ± 0.18%
  activity at 50 µM: 17.1 ± 0.65%
MDA-MB-231 cells
  activity at 1 µM: 83.22 ± 0.21%
  activity at 5 µM: 54.18 ± 0.35%
  activity at 10 µM: 43.7 ± 0.54%
  activity at 25 µM: 23.3 ± 0.26%
  activity at 50 µM: 13.8 ± 0.73%
other
  melting point: 252 to 254 °C

## Cc1cccnc1C(=O)N1CCn2c3ccccc3c(=O)c3cccc1c32 [Compound 7g, 3-(3-Methylpicolinoyl)-2,3-dihydropyrazino[3,2,1-de]acridin-7(1H)-one]
HEK293T cells
  activity at 1 µM: 95.9 ± 0.54%
  activity at 5 µM: 92.62 ± 0.31%
  activity at 10 µM: 88.84 ± 0.07%
  activity at 25 µM: 81.24 ± 0.32%
  activity at 50 µM: 48.2 ± 0.86%
HT29 cells
  activity at 1 µM: 79.09 ± 0.34%
  activity at 5 µM: 58.9 ± 0.93%
  activity at 10 µM: 45.1 ± 0.54%
  activity at 25 µM: 25.5 ± 0.44%
  activity at 50 µM: 10 ± 0.91%
MDA-MB-231 cells
  activity at 1 µM: 81.56 ± 0.48%
  activity at 5 µM: 52.3 ± 0.86%
  activity at 10 µM: 41.7 ± 0.74%
  activity at 25 µM: 14.6 ± 0.34%
  activity at 50 µM: 10.6 ± 0.28%
other
  melting point: 221 to 223 °C

## O=c1c2ccccc2n2c3c(cccc13)N(c1nccs1)CC2 [Compound 7j, 3-(Thiazol-2-yl)-2,3-dihydropyrazino[3,2,1-de]acridin-7(1H)-one]
HEK293T cells
  activity at 1 µM: 96.71 ± 0.63%
  activity at 5 µM: 94.47 ± 0.83%
  activity at 10 µM: 91.28 ± 0.48%
  activity at 25 µM: 84.17 ± 0.37%
  activity at 50 µM: 49.6 ± 0.38%
HT29 cells
  activity at 1 µM: 89.55 ± 0.11%
  activity at 5 µM: 64.84 ± 0.45%
  activity at 10 µM: 51.5 ± 0.94%
  activity at 25 µM: 31.05 ± 0.19%
  activity at 50 µM: 17.4 ± 0.87%
MDA-MB-231 cells
  activity at 1 µM: 87.9 ± 0.95%
  activity at 5 µM: 58.4 ± 0.88%
  activity at 10 µM: 48.2 ± 0.88%
  activity at 25 µM: 39.53 ± 0.23%
  activity at 50 µM: 23.3 ± 0.98%
other
  melting point: 239 to 241 °C

## O=C(c1ccc(O)cc1)N1CCn2c3ccccc3c(=O)c3cccc1c32 [Compound 7k, 3-(4-hydroxybenzoyl)-2,3-dihydro-1H,7H-pyrazino[3,2,1-de]acridin-7-one]
HEK293T cells
  activity at 1 µM: 99.55 ± 0.46%
  activity at 5 µM: 97.77 ± 0.09%
  activity at 10 µM: 96.79 ± 0.17%
  activity at 25 µM: 95.46 ± 0.43%
  activity at 50 µM: 56.26 ± 0.12%
HT29 cells
  activity at 1 µM: 96.6 ± 0.99%
  activity at 5 µM: 81.84 ± 0.11%
  activity at 10 µM: 74.68 ± 0.64%
  activity at 25 µM: 66.23 ± 0.18%
  activity at 50 µM: 28 ± 0.96%
MDA-MB-231 cells
  activity at 1 µM: 97.31 ± 0.74%
  activity at 5 µM: 88.16 ± 0.43%
  activity at 10 µM: 80.54 ± 0.54%
  activity at 25 µM: 70.48 ± 0.17%
  activity at 50 µM: 41.5 ± 0.91%
other
  melting point: 265 to 267 °C

## O=C(c1ccccc1)N1CCn2c3ccccc3c(=O)c3cccc1c32 [Compound 7l, 3-Benzoyl-2,3-dihydro-1H,7H-pyrazino[3,2,1-de]acridin-7-one]
HEK293T cells
  activity at 1 µM: 96.44 ± 0.31%
  activity at 5 µM: 94.13 ± 0.23%
  activity at 10 µM: 89.65 ± 0.12%
  activity at 25 µM: 82.83 ± 0.54%
  activity at 50 µM: 48.8 ± 0.67%
HT29 cells
  activity at 1 µM: 97.17 ± 0.22%
  activity at 5 µM: 83.2 ± 0.99%
  activity at 10 µM: 76.71 ± 0.06%
  activity at 25 µM: 68.88 ± 0.47%
  activity at 50 µM: 30.6 ± 0.87%
MDA-MB-231 cells
  activity at 1 µM: 95.13 ± 0.85%
  activity at 5 µM: 82.38 ± 0.27%
  activity at 10 µM: 75.3 ± 0.81%
  activity at 25 µM: 65.86 ± 0.47%
  activity at 50 µM: 38.8 ± 0.88%
other
  melting point: 253 to 255 °C

## O=C(c1ccc(C(F)(F)F)cc1)N1CCn2c3ccccc3c(=O)c3cccc1c32 [Compound 7o, 3-(4-(Trifluoromethyl)benzoyl)-2,3-dihydro-1H,7H-pyrazino[3,2,1-de]acridin-7-one]
HEK293T cells
  activity at 1 µM: 95.33 ± 0.63%
  activity at 5 µM: 91.17 ± 0.26%
  activity at 10 µM: 88.65 ± 0.11%
  activity at 25 µM: 80.68 ± 0.76%
  activity at 50 µM: 48.2 ± 0.79%
HT29 cells
  activity at 1 µM: 93.92 ± 0.39%
  activity at 5 µM: 77.8 ± 0.91%
  activity at 10 µM: 69.54 ± 0.24%
  activity at 25 µM: 58.23 ± 0.26%
  activity at 50 µM: 24.3 ± 0.76%
MDA-MB-231 cells
  activity at 1 µM: 94.97 ± 0.73%
  activity at 5 µM: 76.63 ± 0.13%
  activity at 10 µM: 70 ± 0.93%
  activity at 25 µM: 61.26 ± 0.29%
  activity at 50 µM: 36.1 ± 0.64%
other
  melting point: 240 to 242 °C
